Values of other authors, collected in patent publication US8945630B2, “Method of producing and applications of composition of hypochlorous acid” (Aquilabs S.A., priority 2008, dated 2015).

Conditions: at 25° C.

dissociation constant: 2.9×10^−8
Compound: OCl [Hypochlorous acid]
